Columns and labels:
[1] = Conjugated autoxidizable triene (CAT) assay; format: biochemical
Method: Antioxidant solutions were prepared as follows: a methanol solution of eutectic extract or Trolox (reference) was prepared at the desired concentration. […] Various volumes of this solution (25, 50, 75, and 100 μL) were then added to 24.9 mL of phosphate buffer solution (PBS), pH 7.2, and then filled to 25.0 mL with pure methanol (75, 50, 25, and 0 μL, respectively). In this way, all buffered solutions of eutectic extract contained the same methanol volume (100 μL), which minimizes any possible bias among samples. Samples of these solutions (50 μL/well) were transferred using a multichannel micropipet into UV-Star 96-well microplate (Greiner, Frickenhausen, Germany) (absorbance at 273 nm=0.03). The microplate was then prewarmed and stirred in a thermostated shaker (PHMT Grant Instruments, […], England) at 37° C. for 5 min at 1,200 rpm. […] Each well was then filled with 100 μL of this tung oil-in-PBS emulsion. To improve repeatability, the microplate was then immediately pre-warmed and shaken, sheltered from light, in a thermostated shaker (PHMT Grant Instruments) at 37° C. for 1 min at 1,200 rpm. Fifty microliters of a freshly prepared AAPH solution in PBS (4 mM) was added with a multi-channel micropipet. […] The progress of reactions was immediately monitored by recording the decrease in absorbance at 273 nm. […] Each experiment was performed in triplicate (three wells), and results were expressed as the mean of CAT value (see below) ±SD. Similarly, to the ORAC assay, the antioxidant value of a sample was calculated through the difference between the area under the curve of this sample and that of the blank (without eutectic extract). The result of this operation gave the net area under the curve (AUC) which was then plotted on a graph as a function of the concentration. Only the linear part of the curve was taken into account to calculate the slope which was then divided by the slope of the Trolox (standard) calculated in the same conditions and analyzed on the same microplate. As such, CAT values were expressed as μmol Trolox equivalent/g eutectic extract.

[2] = Oxygen radical absorbance capacity (ORAC) method
Method: Test of Physico-Chemical Efficacy as Antioxidant—Oxygen Radical Absorbance Capacity (ORAC) Method
Phosphate buffer solutions (pH 7.2) containing the desired concentrations of eutectic extracts were prepared. Fifty millilitres of each solution were transferred by multi-channel pipette into a Fluotrac 96-well microplate (Greiner).
To improve the repeatability, the microplate was pre-heated at 37° C. under orbital stirring at 1,200 rpm in a temperature-controlled thermoshaker (PHMT series, Grant Instruments Ltd, Shepreth, England) for 20 minutes.
50 μL of AAPH solution in freshly prepared phosphate buffer solution was then added using a multi-channel pipette.
A drop in fluorescence to 515 nm (λex: 490 nm) was immediately recorded. Measurements were then taken every minute for 2 hours at 37±0.1° C. with 5 seconds of stirring before each measurement using a microplate reader.

[3] = Table 1, fresh rosemary eutectic extracts
[4] = Table 2, dried rosemary powder eutectic extracts

Work on `C[N+](C)(C)CCO.[Cl-]` [ChCl alone, choline chloride] yielded a CAT value [1, 3] of 0 μmol TE/g, a CAT value [1, 4] of 0 μmol TE/g and an ORAC value [2, 3] of 0.3 μmol TE/g. The ORAC value [2, 4] was 0.3 μmol TE/g.
For `CCCCCCCC/C=C\CCCCCCCC(=O)O` [oleic acid], the “ORAC method result in words” value ([2]; pure substance) was “positive value, although a modest one”.
`CC[N+](CC)(CC)Cc1ccccc1.[Cl-]` [BTEAC alone, benzyltriethyl ammonium chloride] showed a CAT value [1, 3] of 0.7 μmol TE/g, a CAT value [1, 4] of 0.7 μmol TE/g and an ORAC value [2, 3] of 2.8 μmol TE/g. It also gave an ORAC value [2, 4] of 2.8 μmol TE/g.
With `CCCCn1cc[n+](C)c1.[Cl-]` [BmimCl alone, 1-butyl-3-methylimidazolium chloride] the CAT value [1, 4] was 0.24 μmol TE/g and the ORAC value [2, 4] was 1.1 μmol TE/g.
